Assay results: ChEMBL document CHEMBL6071153, “Design, synthesis, and evaluation of antitumor activity in Pseudolaric acid B Azole derivatives: Novel and potent angiogenesis inhibitor via regulation of the PI3K/AKT and MAPK mediated HIF-1/VEGF signaling pathway” (Eur J Med Chem, 2024)

Tests used:
SiHa = assay: Cytotoxicity against human SiHa cells assessed as inhibition of cell growth incubated for 24 hrs under normoxic condition by MTT assay; assay type: functional, cell-based
[1] = Inhibition of VEGFR mediated endocytosis in human SiHa cells incubated for 24 hrs under hypoxic condition by ELISA; assay type: cell-based

| Structure (SMILES) | IC50 [1] | IC50 (SiHa) |
| --- | --- | --- |
| COC(=O)C1=CC[C@@]23CC[C@@H]([C@@](C)(/C=C/C=C(\C)C(=O)NCc4cn(-c5ccc(Cl)c(Cl)c5)nn4)OC2=O)[C@@]3(OC(C)=O)CC1 | > 5 µM | > 30 µM |
| COC(=O)C1=CC[C@@]23CC[C@@H]([C@@](C)(/C=C/C=C(\C)C(=O)OCc4cc(-c5ccc(OC)cc5)no4)OC2=O)[C@@]3(OC(C)=O)CC1 | > 5 µM | > 30 µM |
| COC(=O)C1=CC[C@@]23CC[C@@H]([C@@](C)(/C=C/C=C(\C)C(=O)OCc4nnc(-c5ccc(OC)cc5)o4)OC2=O)[C@@]3(OC(C)=O)CC1 | > 5 µM | > 30 µM |
| COC(=O)C1=CC[C@@]23CC[C@@H]([C@@](C)(/C=C/C=C(\C)C(=O)NCc4cn(-c5ccc(F)cc5)nn4)OC2=O)[C@@]3(OC(C)=O)CC1 | 4.14 µM | > 30 µM |
| COC(=O)C1=CC[C@@]23CC[C@@H]([C@@](C)(/C=C/C=C(\C)C(=O)NCc4cn(-c5ccc(Cl)cc5)nn4)OC2=O)[C@@]3(OC(C)=O)CC1 | 3.74 µM | > 30 µM |
| COC(=O)C1=CC[C@@]23CC[C@@H]([C@@](C)(/C=C/C=C(\C)C(=O)OCC(=O)NCc4cn(-c5ccc(OC)cc5)nn4)OC2=O)[C@@]3(OC(C)=O)CC1 | 3.4 µM | > 30 µM |
| COC(=O)C1=CC[C@@]23CC[C@@H]([C@@](C)(/C=C/C=C(\C)C(=O)OCCn4ncn(-c5ccc(OC)cc5)c4=O)OC2=O)[C@@]3(OC(C)=O)CC1 | > 5 µM | > 30 µM |
| COC(=O)C1=CC[C@@]23CC[C@@H]([C@@](C)(/C=C/C=C(\C)C(=O)NCc4cn(-c5ccc(OC)cc5)nn4)OC2=O)[C@@]3(OC(C)=O)CC1 | 5.06 µM | > 30 µM |
| COC(=O)C1=CC[C@@]23CC[C@@H]([C@@](C)(/C=C/C=C(\C)C(=O)OCc4nnc(-c5ccc(Cl)cc5)o4)OC2=O)[C@@]3(OC(C)=O)CC1 | > 5 µM | > 30 µM |
| COC(=O)C1=CC[C@@]23CC[C@@H]([C@@](C)(/C=C/C=C(\C)C(=O)OCC(=O)Nc4ccccc4)OC2=O)[C@@]3(OC(C)=O)CC1 | 4.03 µM | > 30 µM |
| COC(=O)C1=CC[C@@]23CC[C@@H]([C@@](C)(/C=C/C=C(\C)C(=O)OCc4cn(Cc5ccccc5)nn4)OC2=O)[C@@]3(OC(C)=O)CC1 | > 5 µM | > 30 µM |
| COC(=O)C1=CC[C@@]23CC[C@@H]([C@@](C)(/C=C/C=C(\C)C(=O)OCCn4ncn(-c5ccc(OC)c(OC)c5)c4=O)OC2=O)[C@@]3(OC(C)=O)CC1 | > 5 µM | > 30 µM |
| COC(=O)C1=CC[C@@]23CC[C@@H]([C@@](C)(/C=C/C=C(\C)C(=O)OCCn4ncn(-c5ccccc5)c4=O)OC2=O)[C@@]3(OC(C)=O)CC1 | 4.03 µM | > 30 µM |
| COC(=O)C1=CC[C@@]23CC[C@@H]([C@@](C)(/C=C/C=C(\C)C(=O)OCc4cn(Cc5ccc(F)cc5)nn4)OC2=O)[C@@]3(OC(C)=O)CC1 | 3.89 µM | > 30 µM |
| COC(=O)C1=CC[C@@]23CC[C@@H]([C@@](C)(/C=C/C=C(\C)C(=O)OCc4cc(-c5ccccc5)no4)OC2=O)[C@@]3(OC(C)=O)CC1 | > 5 µM | > 30 µM |
| COC(=O)C1=CC[C@@]23CC[C@@H]([C@@](C)(/C=C/C=C(\C)C(=O)OCc4nc(-c5ccc(OC)cc5)no4)OC2=O)[C@@]3(OC(C)=O)CC1 | 4.16 µM | > 30 µM |
| COC(=O)C1=CC[C@@]23CC[C@@H]([C@@](C)(/C=C/C=C(\C)C(=O)OCc4cc(-c5ccc(Cl)cc5)no4)OC2=O)[C@@]3(OC(C)=O)CC1 | 4.44 µM | > 30 µM |
| COC(=O)C1=CC[C@@]23CC[C@@H]([C@@](C)(/C=C/C=C(\C)C(=O)OCc4cn(-c5ccccc5)nn4)OC2=O)[C@@]3(OC(C)=O)CC1 | > 5 µM | > 30 µM |
| COC(=O)C1=CC[C@@]23CC[C@@H]([C@@](C)(/C=C/C=C(\C)C(=O)OCc4nnc(-c5ccccc5)o4)OC2=O)[C@@]3(OC(C)=O)CC1 | > 5 µM | > 30 µM |
| COC(=O)C1=CC[C@@]23CC[C@@H]([C@@](C)(/C=C/C=C(\C)C(=O)OCC(=O)Nc4ccc(Cl)cc4)OC2=O)[C@@]3(OC(C)=O)CC1 | 4.38 µM | > 30 µM |
| COC(=O)C1=CC[C@@]23CC[C@@H]([C@@](C)(/C=C/C=C(\C)C(=O)OCc4nc(-c5ccc(Cn6cncn6)cc5)no4)OC2=O)[C@@]3(OC(C)=O)CC1 | > 5 µM | > 30 µM |

Stronger by IC50 [1], values ahead:

| IC50 [1] | Structure (SMILES) | IC50 (SiHa) |
| --- | --- | --- |
| 3.03 µM | COC(=O)C1=CC[C@@]23CC[C@@H]([C@@](C)(/C=C/C=C(\C)C(=O)OCc4nc(-c5ccc(Cl)c(Cl)c5)no4)OC2=O)[C@@]3(OC(C)=O)CC1 | > 30 µM |
| 2.91 µM | COC(=O)C1=CC[C@@]23CC[C@@H]([C@@](C)(/C=C/C=C(\C)C(=O)NCc4cn(-c5ccccc5)nn4)OC2=O)[C@@]3(OC(C)=O)CC1 | > 30 µM |
| 2.8 µM | COC(=O)C1=CC[C@@]23CC[C@@H]([C@@](C)(/C=C/C=C(\C)C(=O)OCC(=O)NCc4cn(-c5ccccc5)nn4)OC2=O)[C@@]3(OC(C)=O)CC1 | > 30 µM |
| 2.79 µM | COC(=O)C1=CC[C@@]23CC[C@@H]([C@@](C)(/C=C/C=C(\C)C(=O)OCc4cn(Cc5ccc(Cl)c(Cl)c5)nn4)OC2=O)[C@@]3(OC(C)=O)CC1 | > 30 µM |
| 2.38 µM | COC(=O)C1=CC[C@@]23CC[C@@H]([C@@](C)(/C=C/C=C(\C)C(=O)OCCn4ncn(-c5ccc(F)cc5)c4=O)OC2=O)[C@@]3(OC(C)=O)CC1 | > 30 µM |
| 2.3 µM | COC(=O)C1=CC[C@@]23CC[C@@H]([C@@](C)(/C=C/C=C(\C)C(=O)OCc4cn(Cc5cc(OC)c(OC)c(OC)c5)nn4)OC2=O)[C@@]3(OC(C)=O)CC1 | > 30 µM |
| 2.18 µM | COC(=O)C1=CC[C@@]23CC[C@@H]([C@@](C)(/C=C/C=C(\C)C(=O)OCc4cn(-c5ccc(OC)cc5)nn4)OC2=O)[C@@]3(OC(C)=O)CC1 | > 30 µM |
| 2.15 µM | COC(=O)C1=CC[C@@]23CC[C@@H]([C@@](C)(/C=C/C=C(\C)C(=O)OCc4cn(-c5ccc(Cl)cc5)nn4)OC2=O)[C@@]3(OC(C)=O)CC1 | > 30 µM |
| 2 µM | COC(=O)C1=CC[C@@]23CC[C@@H]([C@@](C)(/C=C/C=C(\C)C(=O)OCc4nc(-c5ccccc5)no4)OC2=O)[C@@]3(OC(C)=O)CC1 | > 30 µM |
| 1.86 µM | COC(=O)C1=CC[C@@]23CC[C@@H]([C@@](C)(/C=C/C=C(\C)C(=O)OCC(=O)Nc4ccc(OC)cc4)OC2=O)[C@@]3(OC(C)=O)CC1 | > 30 µM |
| 1.86 µM | COC(=O)C1=CC[C@@]23CC[C@@H]([C@@](C)(/C=C/C=C(\C)C(=O)OCCn4ncn(-c5ccc(Cl)cc5)c4=O)OC2=O)[C@@]3(OC(C)=O)CC1 | > 30 µM |
| 1.75 µM | COC(=O)C1=CC[C@@]23CC[C@@H]([C@@](C)(/C=C/C=C(\C)C(=O)OCc4cn(Cc5ccc(OC)cc5)nn4)OC2=O)[C@@]3(OC(C)=O)CC1 | > 30 µM |
| 1.51 µM | COC(=O)C1=CC[C@@]23CC[C@@H]([C@@](C)(/C=C/C=C(\C)C(=O)OCc4nc(-c5ccc(Cl)cc5)no4)OC2=O)[C@@]3(OC(C)=O)CC1 | > 30 µM |
| 1.43 µM | COC(=O)C1=CC[C@@]23CC[C@@H]([C@@](C)(/C=C/C=C(\C)C(=O)OCc4cn(Cc5ccc(Cl)cc5)nn4)OC2=O)[C@@]3(OC(C)=O)CC1 | > 30 µM |
| 1.17 µM | COC(=O)C1=CC[C@@]23CC[C@@H]([C@@](C)(/C=C/C=C(\C)C(=O)OCCn4ncn(-c5ccc(Cl)c(Cl)c5)c4=O)OC2=O)[C@@]3(OC(C)=O)CC1 | > 30 µM |
